In patent US8404898B2, “Integrated process for the preparation of polybenzimidazole precursors” (E I du Pont de Nemours and Company, priority 2008, dated 2013):

Assay: solubility of TAT salt in water
Assay type: physicochemical
Settings: water at 25° C.
Experimental: The reaction mixture containing the precipitated TAT salt is then cooled to about 5° C. to about 15° C. and stirred, then filtered. The TAT salt is then washed 44. […] Using an agitated filter unit during the wash procedures can allow for a reduction of the wash volumes. Under such circumstances, using small amounts of cold (e.g., about 5° C.) water instead of the aqueous acid would be effective; cold water would be used because of lower solubility of the TAT salt in cold water versus, e.g., room temperature. For example, the solubility of TAT.4HCl in water at 25° C. is about 16 wt %.

solubility in water: about 16 wt %
Structure (SMILES): Cc1c(N)c(N)cc(N)c1N [TAT.4HCl, 2,3,5,6-tetraminotoluene]
